Reference: ChEMBL document CHEMBL4033793, “Potent and Selective Inhibitors of Human Sirtuin 5” (J Med Chem, 2018)
Residues, ends and D or L forms follow the SMILES beside them. *: point of attachment. X27 = O=C(O)[C@H](CC(=O)*)SCc1ccc([N+](=O)[O-])cc1; X56 = Cc1cc(C)c(CS[C@H](CC(=O)*)C(=O)O)c(C)c1; X36 = O=C(O)[C@@H](CC(=O)*)Sc1ccc2ccccc2c1; X6 = Cc1noc(C)c1CCS[C@@H](CC(=O)*)C(=O)O; X47 = O=C(O)[C@@H](CC(=O)*)SCc1ccccc1Cl; X37 = O=C(O)[C@H](CC(=O)*)SCCCc1ccccc1; X45 = O=C(O)[C@H](CC(=O)*)SC1CCCCC1; X42 = O=C(CCSc1ccc2ccccc2c1)*; Bz = O=C(c1ccccc1)*

Biological target: NAD-dependent protein deacylase sirtuin-5, mitochondrial (Homo sapiens, UniProt Q9NXA8)
Sequence (Q9NXA8 whole entry): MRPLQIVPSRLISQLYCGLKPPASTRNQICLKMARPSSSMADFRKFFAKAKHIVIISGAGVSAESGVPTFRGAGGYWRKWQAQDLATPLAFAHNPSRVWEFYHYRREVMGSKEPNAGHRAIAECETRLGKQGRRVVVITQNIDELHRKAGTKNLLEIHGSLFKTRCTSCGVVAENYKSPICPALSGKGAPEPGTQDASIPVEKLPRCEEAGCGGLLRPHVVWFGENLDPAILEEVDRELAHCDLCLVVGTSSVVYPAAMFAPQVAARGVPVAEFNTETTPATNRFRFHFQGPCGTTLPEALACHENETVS
Assay: Inhibition of human recombinant N-terminal Strep2-tagged SIRT5 expressed in Escherichia coli BL21 (DE3) using Abz-GVLK(glutaryl)AY(NO2)GV-NH2 as substrate in presence of NAD+ by fluorescence assay

SMILES | IC50 [µM]
Cc1noc(C)c1CCS[C@@H](CC(=O)NCCCC[C@H](NC(=O)[C@H](CC(C)C)NC(=O)[C@@H](NC(=O)CNC(=O)c1ccccc1)C(C)C)C(=O)N[C@@H](CCC(=O)O)C(=O)N[C@@H](Cc1ccc(O)cc1)C(=O)NCC(=O)N[C@H](C(N)=O)C(C)C)C(=O)O (Bz-GVLK(X6)EYGV-NH2) | 8.75
CC(C)C[C@H](NC(=O)[C@@H](NC(=O)CNC(=O)c1ccccc1)C(C)C)C(=O)N[C@@H](CCCCNC(=O)C[C@H](SC1CCCCC1)C(=O)O)C(=O)N[C@@H](CCC(=O)O)C(=O)N[C@@H](Cc1ccc(O)cc1)C(=O)NCC(=O)N[C@H](C(N)=O)C(C)C (Bz-GVLK(X45)EYGV-NH2) | > 4
CC(C)C[C@H](NC(=O)[C@@H](NC(=O)CNC(=O)c1ccccc1)C(C)C)C(=O)N[C@@H](CCCCNC(=O)CCSc1ccc2ccccc2c1)C(=O)N[C@@H](CCC(=O)O)C(=O)N[C@@H](Cc1ccc(O)cc1)C(=O)NCC(=O)N[C@H](C(N)=O)C(C)C (Bz-GVLK(X42)EYGV-NH2) | > 40
CC(C)C[C@H](NC(=O)[C@@H](NC(=O)CNC(=O)c1ccccc1)C(C)C)C(=O)N[C@@H](CCCCNC(=O)C[C@@H](Sc1ccc2ccccc2c1)C(=O)O)C(=O)N[C@@H](CCC(=O)O)C(=O)N[C@@H](Cc1ccc(O)cc1)C(=O)NCC(=O)N[C@H](C(N)=O)C(C)C (Bz-GVLK(X36)EYGV-NH2) | 1.18

Other lines, results leading:

IC50 [µM] | SMILES
0.631 | Cc1cc(C)c(CS[C@H](CC(=O)NCCCC[C@H](NC(=O)[C@H](CC(C)C)NC(=O)[C@@H](NC(=O)CNC(=O)c2ccccc2)C(C)C)C(=O)N[C@@H](CCC(=O)O)C(=O)N[C@@H](Cc2ccc(O)cc2)C(=O)NCC(=O)N[C@H](C(N)=O)C(C)C)C(=O)O)c(C)c1 (Bz-GVLK(X56)EYGV-NH2)
1.13 | CC(C)C[C@H](NC(=O)[C@@H](NC(=O)CNC(=O)c1ccccc1)C(C)C)C(=O)N[C@@H](CCCCNC(=O)C[C@H](SCCCc1ccccc1)C(=O)O)C(=O)N[C@@H](CCC(=O)O)C(=O)N[C@@H](Cc1ccc(O)cc1)C(=O)NCC(=O)N[C@H](C(N)=O)C(C)C (Bz-GVLK(X37)EYGV-NH2)
0.352 | CC(C)C[C@H](NC(=O)[C@@H](NC(=O)CNC(=O)c1ccccc1)C(C)C)C(=O)N[C@@H](CCCCNC(=O)C[C@@H](SCc1ccccc1Cl)C(=O)O)C(=O)N[C@@H](CCC(=O)O)C(=O)N[C@@H](Cc1ccc(O)cc1)C(=O)NCC(=O)N[C@H](C(N)=O)C(C)C (Bz-GVLK(X47)EYGV-NH2)
3.73 | CC(C)C[C@H](NC(=O)[C@@H](NC(=O)CNC(=O)c1ccccc1)C(C)C)C(=O)N[C@@H](CCCCNC(=O)C[C@H](SCc1ccc([N+](=O)[O-])cc1)C(=O)O)C(=O)N[C@@H](CCC(=O)O)C(=O)N[C@@H](Cc1ccc(O)cc1)C(=O)NCC(=O)N[C@H](C(N)=O)C(C)C (Bz-GVLK(X27)EYGV-NH2)
